Source: ChEMBL document CHEMBL4270637, “Small molecule-induced degradation of the full length and V7 truncated variant forms of human androgen receptor” (Eur J Med Chem, 2018)
Active and inactive are the calls of the source. The calls are words filed in the database; no cut-off is given here.

Legend:
[1] = biological target: T1, Androgen receptor (Homo sapiens, UniProt P10275); assay: Inhibition of R1881-induced full length AR transcriptional activity in human LNCAP cells harboring AR2PB-eGFP construct after 72 hrs by fluorescence assay; format: cell-based
T1 sequence (P10275 whole entry): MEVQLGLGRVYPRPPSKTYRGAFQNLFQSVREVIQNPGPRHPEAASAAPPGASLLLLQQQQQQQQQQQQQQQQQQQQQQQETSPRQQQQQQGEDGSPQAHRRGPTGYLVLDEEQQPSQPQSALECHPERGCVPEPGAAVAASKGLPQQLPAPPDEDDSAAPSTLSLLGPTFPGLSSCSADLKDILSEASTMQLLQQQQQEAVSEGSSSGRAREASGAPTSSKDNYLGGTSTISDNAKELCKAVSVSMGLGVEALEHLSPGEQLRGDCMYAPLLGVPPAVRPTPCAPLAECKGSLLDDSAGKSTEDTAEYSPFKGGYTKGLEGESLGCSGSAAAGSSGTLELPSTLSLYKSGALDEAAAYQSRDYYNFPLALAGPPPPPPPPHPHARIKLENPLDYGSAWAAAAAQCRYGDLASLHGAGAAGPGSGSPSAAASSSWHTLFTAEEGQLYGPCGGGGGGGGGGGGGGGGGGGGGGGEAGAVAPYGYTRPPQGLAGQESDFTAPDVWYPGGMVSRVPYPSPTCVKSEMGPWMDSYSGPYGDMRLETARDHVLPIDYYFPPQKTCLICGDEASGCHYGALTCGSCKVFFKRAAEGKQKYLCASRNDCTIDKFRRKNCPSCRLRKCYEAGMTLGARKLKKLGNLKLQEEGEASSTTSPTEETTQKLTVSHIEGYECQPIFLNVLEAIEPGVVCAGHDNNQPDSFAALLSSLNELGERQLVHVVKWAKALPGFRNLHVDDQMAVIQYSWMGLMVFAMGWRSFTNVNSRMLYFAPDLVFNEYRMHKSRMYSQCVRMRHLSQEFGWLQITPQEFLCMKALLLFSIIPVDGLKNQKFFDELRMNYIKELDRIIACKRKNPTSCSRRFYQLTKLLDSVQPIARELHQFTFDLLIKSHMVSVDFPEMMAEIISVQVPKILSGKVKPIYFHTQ

[2] = biological target: Androgen receptor (Homo sapiens, UniProt P10275); assay: Inhibition of R1881-induced transcriptional activity of human AR V7 truncated mutant expressed in human PC3 cells harboring pGL3-ARR3tk-NLuc after 24 hrs by luciferase reporter gene assay; format: cell-based
[3] = biological target: T1, Androgen receptor; assay: Inhibition of full length AR transcriptional activity in human LNCAP cells harboring AR2PB-eGFP construct assessed as reduction in R1881-induced secreted PSA level after 72 hrs by fluorescence assay; format: cell-based
[4] = test system: CWR22R; assay: Cytotoxicity against human 22Rv1 cells assessed as growth inhibition at lower concentration after 72 hrs by presto-blue dye based assay; format: functional, cell-based
[5] = biological target: T2, Androgen receptor (Homo sapiens) (UniProt P10275); assay: Induction of full length AR degradation in human LNCAP cells at 2 to 20 uM after 5 hrs by Western blot analysis; format: cell-based
T2 sequence (whole entry): T1 sequence (P10275 whole entry)

[6] = test system: LNCaP; assay: Induction of apoptosis in human LNCAP cells assessed as PARP cleavage at 2 to 20 uM after 5 hrs by Western blot analysis; format: functional, cell-based
[7] = biological target: T2, Androgen receptor (Homo sapiens); assay: Induction of full length AR degradation in human LNCAP cells assessed as reduction in AR mRNA level at 2 to 20 uM after […] by RT-PCR method; format: cell-based
[8] = biological target: T2, Androgen receptor (Homo sapiens); assay: Inhibition of R1881-induced transcriptional activity of human AR expressed in human PC3 cells harboring pGL3-ARR3tk-NLuc at 2 uM after 24 hrs by luciferase reporter gene assay; format: cell-based
[9] = biological target: Estrogen receptor (Homo sapiens) (UniProt Q92731+P03372); assay: Inhibition of estradiol-induced transcriptional activity of human ER expressed in human PC3 cells harboring pGL3-ERE-NLuc at 2 uM after 24 hrs by luciferase reporter gene assay; format: cell-based
[10] = biological target: T3, Glucocorticoid receptor (Homo sapiens) (UniProt P04150); assay: Inhibition of dexamethasone-induced transcriptional activity of human GR expressed in human PC3 cells harboring pGL3-ARR3tk-NLuc at 2 uM after 24 hrs by luciferase reporter gene assay; format: cell-based
T3 sequence (whole entry): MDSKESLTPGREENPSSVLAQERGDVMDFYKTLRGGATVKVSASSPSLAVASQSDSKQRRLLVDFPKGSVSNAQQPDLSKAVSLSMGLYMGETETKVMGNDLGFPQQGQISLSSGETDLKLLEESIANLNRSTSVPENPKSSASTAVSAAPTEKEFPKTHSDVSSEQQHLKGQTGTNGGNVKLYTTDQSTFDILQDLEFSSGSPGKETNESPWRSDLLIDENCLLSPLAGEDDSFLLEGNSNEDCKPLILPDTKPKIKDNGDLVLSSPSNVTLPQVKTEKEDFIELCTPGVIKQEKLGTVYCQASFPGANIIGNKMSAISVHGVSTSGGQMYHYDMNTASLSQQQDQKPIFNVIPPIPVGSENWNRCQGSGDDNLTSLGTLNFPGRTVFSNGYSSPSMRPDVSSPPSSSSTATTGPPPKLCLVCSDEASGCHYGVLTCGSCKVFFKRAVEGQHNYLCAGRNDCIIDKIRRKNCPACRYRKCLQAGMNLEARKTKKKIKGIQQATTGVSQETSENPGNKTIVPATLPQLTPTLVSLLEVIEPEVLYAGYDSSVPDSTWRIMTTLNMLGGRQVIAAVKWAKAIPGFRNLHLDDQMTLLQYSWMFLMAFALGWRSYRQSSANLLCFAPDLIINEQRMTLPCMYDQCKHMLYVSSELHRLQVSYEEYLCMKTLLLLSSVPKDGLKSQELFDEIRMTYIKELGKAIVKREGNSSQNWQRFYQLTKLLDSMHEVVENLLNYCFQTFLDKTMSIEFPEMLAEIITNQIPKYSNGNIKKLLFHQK

[11] = biological target: T4, Progesterone receptor (Homo sapiens) (UniProt P06401); assay: Inhibition of progesterone-induced transcriptional activity of human PR expressed in human PC3 cells harboring pGL3-ARR3tk-NLuc at 2 uM after 24 hrs by luciferase reporter gene assay; format: cell-based
T4 sequence (whole entry): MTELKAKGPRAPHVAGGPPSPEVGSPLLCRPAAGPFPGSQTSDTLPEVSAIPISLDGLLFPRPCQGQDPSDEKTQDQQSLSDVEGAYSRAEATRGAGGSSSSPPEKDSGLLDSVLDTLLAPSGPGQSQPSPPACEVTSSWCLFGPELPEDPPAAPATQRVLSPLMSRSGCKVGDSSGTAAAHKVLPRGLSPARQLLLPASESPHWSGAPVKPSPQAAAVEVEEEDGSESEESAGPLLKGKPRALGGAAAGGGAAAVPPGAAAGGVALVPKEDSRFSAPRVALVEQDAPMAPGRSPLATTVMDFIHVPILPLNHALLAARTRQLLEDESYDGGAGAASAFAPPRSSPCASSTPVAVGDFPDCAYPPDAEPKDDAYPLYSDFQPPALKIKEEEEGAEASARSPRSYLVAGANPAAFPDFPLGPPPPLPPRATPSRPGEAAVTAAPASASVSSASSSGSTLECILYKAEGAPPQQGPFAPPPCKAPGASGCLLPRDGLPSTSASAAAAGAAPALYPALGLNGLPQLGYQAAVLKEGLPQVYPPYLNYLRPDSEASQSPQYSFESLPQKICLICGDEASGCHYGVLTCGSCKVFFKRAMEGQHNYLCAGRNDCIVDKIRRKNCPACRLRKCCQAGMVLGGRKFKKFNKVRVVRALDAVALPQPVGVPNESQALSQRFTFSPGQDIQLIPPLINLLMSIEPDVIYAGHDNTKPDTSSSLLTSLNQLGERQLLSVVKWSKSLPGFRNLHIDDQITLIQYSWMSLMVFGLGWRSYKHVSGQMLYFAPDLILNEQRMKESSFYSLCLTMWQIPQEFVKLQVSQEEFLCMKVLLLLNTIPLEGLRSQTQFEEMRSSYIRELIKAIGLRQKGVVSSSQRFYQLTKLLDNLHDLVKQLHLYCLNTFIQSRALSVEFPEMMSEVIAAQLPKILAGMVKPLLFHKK

[12] = biological target: T2, Androgen receptor (Homo sapiens); conditions: at 10 µM
Description: Antagonist activity at full length YFP-tagged AR (unknown origin) expressed in HEK293T cells assessed as inhibition of R1881-induced nuclear translocation at 10 uM after 4 hrs by DAPI staining based confocal microscopic method

[13] = test system: CWR22R; assay: Cytotoxicity against human 22Rv1 cells assessed as growth inhibition at 5 uM after 72 hrs by presto-blue dye based assay; format: functional, cell-based
[14] = test system: LNCaP; assay: Cytotoxicity against human LNCAP cells harboring AR2PB-eGFP construct after 72 hrs by MTS assay; format: cell-based
[15] = test system: PC-3; assay: Cytotoxicity against human PC3 cells harboring pGL3-ARR3tk-NLu/human AR V7 truncated mutant after 72 hrs by MTS assay; format: cell-based; conditions: pc-3, 72 h
[16] = test system: CWR22R; assay: Cytotoxicity against human 22Rv1 cells assessed as growth inhibition at 0.5 uM after 72 hrs by presto-blue dye based assay; format: functional, cell-based
[17] = test system: PC-3; assay: Cytotoxicity against human PC3 cells assessed as growth inhibition after 72 hrs by presto-blue dye based assay; format: cell-based; conditions: pc-3, 72 h
[18] = biological target: T5, Androgen receptor (Rattus norvegicus, UniProt P15207); assay: Displacement of Fluormone-DHT from rat GST-tagged rat AR LBD expressed in insect cells after 4 hrs by fluorescence polarization assay
T5 sequence (P15207 whole entry): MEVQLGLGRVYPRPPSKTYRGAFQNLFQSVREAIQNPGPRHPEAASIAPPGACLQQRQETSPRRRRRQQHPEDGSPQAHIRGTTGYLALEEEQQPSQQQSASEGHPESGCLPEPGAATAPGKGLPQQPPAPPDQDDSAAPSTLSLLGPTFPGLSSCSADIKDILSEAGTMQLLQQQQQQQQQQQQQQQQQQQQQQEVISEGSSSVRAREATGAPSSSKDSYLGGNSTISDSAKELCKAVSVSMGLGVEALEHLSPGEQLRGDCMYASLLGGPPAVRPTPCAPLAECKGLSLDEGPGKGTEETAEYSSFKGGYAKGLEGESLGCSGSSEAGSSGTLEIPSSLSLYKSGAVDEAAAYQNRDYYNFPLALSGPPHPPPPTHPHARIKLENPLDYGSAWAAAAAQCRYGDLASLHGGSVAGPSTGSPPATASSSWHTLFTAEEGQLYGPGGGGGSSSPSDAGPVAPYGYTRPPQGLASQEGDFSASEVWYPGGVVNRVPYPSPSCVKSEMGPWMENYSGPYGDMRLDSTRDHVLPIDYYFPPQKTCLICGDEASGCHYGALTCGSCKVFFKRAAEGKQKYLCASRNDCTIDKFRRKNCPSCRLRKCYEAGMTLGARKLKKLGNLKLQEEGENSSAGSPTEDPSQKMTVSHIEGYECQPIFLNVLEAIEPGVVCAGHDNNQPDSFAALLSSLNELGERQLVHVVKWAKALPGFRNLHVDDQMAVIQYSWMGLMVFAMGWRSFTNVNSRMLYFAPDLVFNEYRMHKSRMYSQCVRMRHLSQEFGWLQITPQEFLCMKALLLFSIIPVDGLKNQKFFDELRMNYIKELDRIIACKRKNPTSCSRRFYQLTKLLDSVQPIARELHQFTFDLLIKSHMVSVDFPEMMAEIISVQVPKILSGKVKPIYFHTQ

[19] = biological target: Tubulin; assay: Inhibition of tubulin polymerization (unknown origin); format: protein-complex assay, Homo sapiens

Compound | IC50 [1] [nM] | IC50 [2] [nM] | IC50 [3] [nM] | growth inhibition (GI) [4] | Activity [5] | Activity [6] | Activity [7] | inhibition [8] | inhibition [9] | inhibition [10] | inhibition [11] | inhibition [12] | growth inhibition (GI) [13] | Activity [14] | Activity [15] | growth inhibition (GI) [16] | growth inhibition (GI) [17] | IC50 [18] [nM] | IC50 [19] [nM]
COc1cc(C=C2c3cccc(Cl)c3C(=O)c3c(Cl)cccc32)cc(OC)c1O | > 10000 | > 10000 |  |  |  |  |  |  |  |  |  |  |  |  |  |  |  |  | 
COc1ccc(C=C2c3ccccc3C(=O)c3ccccc32)c(O)c1 | 232 | < 10000 | 100 | Active | Active | inactive | inactive | Active | inactive | inactive | inactive | inactive |  |  |  |  |  |  | 
COc1cccc(C=C2c3cccc(Cl)c3C(=O)c3c(Cl)cccc32)c1O | 1480 | 10000 | 730 |  | Active | inactive |  |  |  |  |  | inactive | Active |  |  |  |  |  | 
O=C1c2c(Cl)cccc2C(=Cc2ccccc2O)c2cccc(Cl)c21 |  |  |  |  |  |  |  |  |  |  |  |  |  | Toxic | Toxic |  |  |  | 
COc1ccc(C=C2c3cccc(Cl)c3C(=O)c3c(Cl)cccc32)cc1O | 1890 to 6000 | 10000 | 340 | Active | inactive | inactive |  |  |  |  |  | inactive |  |  |  |  |  |  | 
O=C1c2ccccc2C(=Cc2cccc(O)c2)c2ccccc21 | 316 | < 10000 | 350 |  | Active | inactive | inactive | Active | inactive | inactive | inactive | inactive |  |  |  | Active | Toxic | 625 to 2500 | 10000
COc1ccc(C=C2c3cccc(Cl)c3C(=O)c3c(Cl)cccc32)c(OC)c1O | 1140 | 10000 | 170 | Active | inactive | inactive |  |  |  |  |  | inactive |  |  |  |  |  |  | 
